Data reported in patent US10273237B2, “Imidazopyridazine compounds useful as modulators of IL-12, IL-23 and/or IFN-α responses” (BRISTOL-MYERS SQUIBB COMPANY, priority 2013, dated 2019).
Several values for one entry are separate records, joined by “and”; a condition that tells them apart may be missing. Identical values can stand only once. Like-named read-outs stand apart in the source and are kept apart here.

Legend:
[1] = molecular target: T1, His-tagged protein corresponding to amino acids 575-869 of human Tyk2 (Homo sapiens, UniProt P29597); assay: Probe displacement assay (scintillation proximity, radiolabeled probe); format: binding; conditions: 2.5 nM Tyk2 (575-869), 40 nM [3H] probe, 30 minutes at room temperature
T1 construct: made in house
Protocol: The preparation of radiolabeled probe, (R)—N-(1-(3-(8-methyl-5-(methylamino)-8H-imidazo[4,5-d]thiazolo[5,4-b]pyridin-2-yl)phenyl)ethyl)-2-([^3H]methylsulfonyl)benzamide, was performed as described below: […]

[2] = test system: IL-23-stimulated Kit225 T cells with STAT-dependent luciferase reporter; assay: Kit225 T cell assay, STAT-dependent luciferase reporter, IL-23 stimulated; format: cell-based, human; conditions: Homo sapiens, KIT225, 20 ng/mL human recombinant IL-23, 5-6 hours, read-out: IL-23 Kit225 Reporter, LE (IC50)
Procedure, shortened: (§1)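 Kit225 T cells carrying a stably integrated STAT-dependent luciferase reporter, in RPMI with 10% heat-inactivated FBS, stimulated with 20 ng/mL human recombinant IL-23 or 200 U/mL human recombinant IFNα for 5-6 h. Luciferase expression read by Steady-Glo luminescence.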

[3] = test system: IFNα-stimulated Kit225 T cells with STAT-dependent luciferase reporter; assay: Kit225 T cell assay, STAT-dependent luciferase reporter, IFNα stimulated; format: cell-based, human; conditions: 5-6 hours, read-out: IFNa Kit225 Reporter, LE (IC50)
Procedure, shortened: as §1

[4] = Homo sapiens, KIT225, 200 U/mL human recombinant IFNα

T1 sequence (P29597 with tags, fused parts or gaps): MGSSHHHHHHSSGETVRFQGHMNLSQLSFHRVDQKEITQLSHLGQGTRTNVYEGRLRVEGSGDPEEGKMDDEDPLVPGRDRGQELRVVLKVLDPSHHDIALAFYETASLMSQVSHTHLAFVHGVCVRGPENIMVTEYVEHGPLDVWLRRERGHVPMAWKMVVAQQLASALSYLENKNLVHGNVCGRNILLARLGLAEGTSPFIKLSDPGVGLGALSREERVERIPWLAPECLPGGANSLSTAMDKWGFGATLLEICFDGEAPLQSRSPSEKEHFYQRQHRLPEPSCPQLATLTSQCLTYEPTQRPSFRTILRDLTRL

SMILES | EC50 [1] | IC50 [2] [nM] | IC50 [3, 4] [nM] | IC50 ([3]; 200 U/mL human recombinant IFNα) [nM]
CNc1cc(Nc2cccn(-c3cnc(C)cn3)c2=O)nn2c(C(=O)NCC(C)(C)CO)cnc12 [Example 6, N-(3-Hydroxy-2,2-dimethylpropyl)-8-(methylamino)-6-((1-(5-methylpyrazin-2-yl)-2-oxo-1,2-dihydropyridin-3-yl)amino)imidazo[1,2-b]pyridazine-3-carboxamide] | 15 nM | 70 | 140 | –
CNc1cc(Nc2cccn(-c3ccc(C#N)cc3)c2=O)nn2c(C(=O)NCC(C)(C)CO)cnc12 [Example 25] | 16 nM | 200 | 100 | –
CNc1cc(Nc2cccn(-c3ccccn3)c2=O)nn2c(C(=O)NC3CC3)cnc12 [Example 32] | 27 nM | 220 | 80 | –
CNc1cc(Nc2cccn(-c3nccs3)c2=O)nn2c(C(=O)NC3CC3)cnc12 [Example 35] | 5 nM | 20 | 50 | –
CNc1cc(Nc2cccn(-c3cccc(F)n3)c2=O)nn2c(C(=O)N[C@@H]3CCOC3)cnc12 [Example 61] | 20 nM | 210 | 180 | –
CNc1cc(Nc2cccn(-c3ccc(C)nn3)c2=O)nn2c(C(=O)NC3CC3)cnc12 [Example 63] | 7 nM | 140 | 110 | –
CC[C@@H](C)NC(=O)c1cnc2c(NC)cc(Nc3cccn(-c4ccccn4)c3=O)nn12 [Example 74] | 9 nM | 170 | 110 | –
CC[C@@H](C)NC(=O)c1cnc2c(NC)cc(Nc3cccn(-c4ccn(C)n4)c3=O)nn12 [Example 79] | 6 nM | 140 | 30 | –
CNc1cc(Nc2cccn(-c3ncc(C)cn3)c2=O)nn2c(C(=O)N[C@@H]3C[C@@H]3F)cnc12 [Example 83] | 2 nM | 200 | 120 | –
CNc1cc(Nc2cccn(-c3cccc(C(C)O)n3)c2=O)nn2c(C(=O)NC3CC3)cnc12 (centres unmarked) [Example 85] | 5 nM | 340 | 110 | –
CNc1cc(Nc2cccn(-c3cccc(C(C)O)n3)c2=O)nn2c(C(=O)NC3CCC3)cnc12 (centres unmarked) [Example 86] | 6 nM | 30 | 30 | –
CNc1cc(Nc2cc(F)cn(-c3ccc(C)nn3)c2=O)nn2c(C(=O)NC3CCC3)cnc12 [Example 93] | 12 nM | 90 | 30 | –
CNc1cc(Nc2cccn(-c3ccccn3)c2=O)nn2c(C(=O)NCCF)cnc12 [Example 101] | 12 nM | 140 | 170 | –
CNc1cc(Nc2cccn(-c3cccnn3)c2=O)nn2c(C(=O)NC(C)C)cnc12 [Example 106] | 13 nM | 180 | 160 | –
CNc1cc(Nc2cccn(-c3cnccn3)c2=O)nn2c(C(=O)NCC(C)(C)CO)cnc12 [Example 109] | 4 nM | – | – | –
CNc1cc(Nc2cc(F)cn(CCOC)c2=O)nn2c(C(=O)NC3CC3)cnc12 [Example 118] | 18 nM | 270 | 150 | –
CNc1cc(Nc2cccn(-c3ccc(C(F)F)cc3)c2=O)nn2c(C(=O)NCC(C)(C)CO)cnc12 [Example 124] | 4 nM | 150 | 80 | –
CNc1cc(Nc2cccn(-c3cccc(C#N)c3)c2=O)nn2c(C(=O)NC3CC3)cnc12 [Example 126] | 8 nM | 300 | 190 | –
CNc1cc(Nc2cccn(-c3ccc(C(F)(F)F)cc3)c2=O)nn2c(C(=O)NCC(C)(CO)CO)cnc12 [Example 132] | 14 nM | 400 | 320 | –
CNc1cc(Nc2cccn(-c3ccc(C(F)(F)F)cc3)c2=O)nn2c(C(=O)NCC3(CO)CC3)cnc12 [Example 133] | 19 nM | 430 | 200 | –
CNc1cc(Nc2cccn(-c3ccc(C(F)(F)F)cc3)c2=O)nn2c(C(=O)NCC(C)(C)CO)cnc12 [Example 136] | 11 nM | 170 | 80 | –
CNc1cc(Nc2cccn(-c3ccc(N4CCOCC4)cc3)c2=O)nn2c(C(=O)NC3(C#N)CC3)cnc12 [Example 140] | 14 nM | 190 | 150 | –
CNc1cc(Nc2cccn(-c3cccc(F)n3)c2=O)nn2c(C(=O)N[C@@H]3C[C@@H]3F)cnc12 [Example 145] | 5 nM | 30 | 10 | –

SMILES | EC50 [1] | IC50 [2] [nM] | IC50 [3, 4] [nM] | IC50 ([3]; 200 U/mL human recombinant IFNα) [nM]
CNc1cc(Nc2cccn(-c3cc(C)n(C)n3)c2=O)nn2c(C(=O)NC3CCC3)cnc12 [Example 155] | 7 nM | 30 | 20 | –
CNc1cc(Nc2cccn(C3(C)CC3)c2=O)nn2c(C(=O)NCC(C)(C)CO)cnc12 [Example 163] | 8 nM | 240 | 70 | –
CNc1cc(Nc2ccnn(-c3ccccc3)c2=O)nn2c(C(=O)N[C@@H]3C[C@@H]3F)cnc12 [Example 180] | 17 nM | 50 | 20 | –
CCC(CC)CNC(=O)c1cnc2c(NC)cc(Nc3cccn(-c4ccccc4)c3=O)nn12 [Example 187] | 29 nM | 220 | 380 | –
CNc1cc(Nc2cccn(C)c2=O)nn2c(C(=O)NCC(C)(C)C)cnc12 [Example 207] | 15 nM and 22 nM | – | 180 | 260
CNc1cc(Nc2cccn(C3CCN(C(C)=O)CC3)c2=O)nn2c(C(=O)NC3C[C@@H]3F)cnc12 (some centres unmarked) [Example 251] | – | 350 | 400 | –
CNc1cc(Nc2cccn(-c3ccc(C(C)(C)O)cn3)c2=O)nn2c(C(=O)NC3CC3)cnc12 [Example 252, N-cyclopropyl-6-((5′-(2-hydroxypropan-2-yl)-2-oxo-2H-[1,2′-bipyridin]-3-yl)amino)-8-(methylamino)imidazo[1,2-b]pyridazine-3-carboxamide] | – | 450 | 190 | –
CNc1cc(Nc2cccn(-c3cnc(C(C)(C)O)cn3)c2=O)nn2c(C(=O)N[C@@H]3C[C@@H]3F)cnc12 [Example 255, N-((1R,2S)-2-Fluorocyclopropyl)-6-((1-(5-(2-hydroxypropan-2-yl)pyrazin-2-yl)-2-oxo-1,2-dihydropyridin-3-yl)amino)-8-(methylamino)imidazo[1,2-b]pyridazine-3-carboxamide] | – | 30.8 | 28 | –
CNc1cc(Nc2cccn(-c3cnc(C(=O)N(C)C)cn3)c2=O)nn2c(C(=O)N[C@@H]3C[C@@H]3F)cnc12 [Example 256, 6-((1-(5-(Dimethylcarbamoyl)pyrazin-2-yl)-2-oxo-1,2-dihydropyridin-3-yl)amino)-N-((1R,2S)-2-fluorocyclopropyl)-8-(methylamino)imidazo[1,2-b]pyridazine-3-carboxamide] | – | 13 | 9.8 | –
CNc1cc(Nc2cccn(-c3ccc(C(=O)N(C)C)cn3)c2=O)nn2c(C(=O)N[C@@H]3C[C@@H]3F)cnc12 [Example 257, 6-((5′-(Dimethylcarbamoyl)-2-oxo-2H-[1,2′-bipyridin]-3-yl)amino)-N-((1R,2S)-2-fluorocyclopropyl)-8-(methylamino)imidazo[1,2-b]pyridazine-3-carboxamide] | – | 180 | 70 | –
CNc1cc(Nc2cccn(-c3ccc(CO)cn3)c2=O)nn2c(C(=O)NC3CC3)cnc12 [compound 253] | – | 180 | 450 | –
CNc1cc(Nc2cccn(-c3ccc(C(C)O)cn3)c2=O)nn2c(C(=O)NC3CC3)cnc12 (centres unmarked) [compound 254] | – | 230 | 260 | –
CNc1cc(Nc2cccn(-c3cncc(C#N)n3)c2=O)nn2c(C(=O)NCC(C)(C)CO)cnc12 [compound 258] | – | 1220 | 590 | –
CNc1cc(Nc2cccn(-c3cnccn3)c2=O)nn2c(C(=O)NC3CCC(O)C3(C)C)cnc12 (centres unmarked) [compound 259] | – | 610 | 420 | –
CCOc1ccc(-n2cccc(Nc3cc(NC)c4ncc(C(=O)N[C@@H]5C[C@@H]5F)n4n3)c2=O)nn1 [compound 260] | – | 10 | 10 | –
CNc1cc(Nc2cccn(-c3ccc(OC)nn3)c2=O)nn2c(C(=O)N[C@@H]3C[C@@H]3F)cnc12 [compound 261] | – | 10 | 20 | –
CNc1cc(Nc2cccn(-c3cnc(C(=O)N(C)C)cn3)c2=O)nn2c(C(=O)NCC(C)(C)CO)cnc12 [compound 262] | – | 90 | 110 | –
CCN(C)C(=O)c1ccc(-n2cccc(Nc3cc(NC)c4ncc(C(=O)N[C@@H]5C[C@@H]5F)n4n3)c2=O)nc1 [compound 263] | – | 160 | 50 | –
CNc1cc(Nc2cccn(-c3ccc(C(=O)N4CCC4)cn3)c2=O)nn2c(C(=O)N[C@@H]3C[C@@H]3F)cnc12 [compound 264] | – | 90 | 40 | –
CNc1cc(Nc2cccn(-c3ccc(C(=O)N4CCCC4)cn3)c2=O)nn2c(C(=O)N[C@@H]3C[C@@H]3F)cnc12 [compound 265] | – | 40 | 60 | –
CNc1cc(Nc2cccn(-c3ccc(C(=O)N(C)C)cc3)c2=O)nn2c(C(=O)N[C@@H]3C[C@@H]3F)cnc12 [compound 266] | – | 120 | 110 | –
CNc1cc(Nc2cccn(-c3ccc(C(=O)N(C)C)cc3)c2=O)nn2c(C(=O)NCC(C)(C)CO)cnc12 [compound 267] | – | 360 | 290 | –
